Among the data in paper PMC13086438 (PLOS Neglected Tropical Diseases, 2026) are Kd values, retold here.

The experiment has as its target T1, recombinant human sphingosine kinase 1 (rhSphK1) (Homo sapiens, UniProt Q9NYA1).
T1 construct: gene SPHK1; full-length (1155 bp CDS), 6×His tag, ~50 kDa, E. coli
Put plainly: Microscale thermophoresis (SphK2 inhibitor used as control). In kind it is binding.

T1 sequence (Q9NYA1 whole entry): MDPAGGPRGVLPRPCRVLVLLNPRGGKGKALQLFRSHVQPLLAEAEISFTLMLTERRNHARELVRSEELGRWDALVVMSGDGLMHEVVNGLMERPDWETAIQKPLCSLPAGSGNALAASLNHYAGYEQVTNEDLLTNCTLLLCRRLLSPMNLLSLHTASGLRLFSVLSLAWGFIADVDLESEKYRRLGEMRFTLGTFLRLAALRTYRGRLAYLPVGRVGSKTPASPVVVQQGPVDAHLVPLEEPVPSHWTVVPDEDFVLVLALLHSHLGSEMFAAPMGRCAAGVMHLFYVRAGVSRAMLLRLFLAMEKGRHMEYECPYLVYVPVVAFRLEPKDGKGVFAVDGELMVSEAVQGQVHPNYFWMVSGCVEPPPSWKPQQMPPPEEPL

For the molecule `O=C(NCc1ccncc1)C12CC3CC(C1)CC(c1ccc(Cl)cc1)(C3)C2` [ABC294640], the dissociation constant Kd amounted to 70.6 µM.
